EP0037780A1, “Alcoxy-propanol amines useful as medicines, and process for their preparation” (PIERRE FABRE S.A., priority 1980, dated 1981)
Values after ≈ are worked out from the molar mass of the structure shown. Where two headings read alike, the source gives them in different places.

Experiment: Solubility
Assay type: physicochemical
Conditions: read-out: Solubilité
From the text: Chromatographie sur plaque : • - support : gel de silice 60 F 254 Merck • - solvant : chloroforme - méthanol - ammoniaque 80/18/2 • - révélation : iode • - Rf : 0,65 Solubilité : soluble à 5 % dans l'eau.
Chromatographie sur plaque : • - support : gel de silice 60 F 254 Merck • - solvant : chloroforme - méthanol - ammoniaque 80/18/2 • - révélation : iode • - Rf : 0,6 Solubilité : soluble à 1 % dans l'eau.
Chromatographie sur plaque : • - support : gel de silice 60 F 254 Merck • - solvant : chloroforme - méthanol - ammoniaque 80/18/2 • - révélation : Réactif de Dragendorf et iode • - Rf : 0,65 Solubilité : soluble à 2 % dans une solution aqueuse d'acide chlorhydrique (0,1 N) et à 1 % dans le propylène glycol.

solubility (propylene glycol, organic solvent or mixture, dans le propylène glycol) [mg/mL] | Compound | solubility (water, dans l'eau) [mg/mL] | solubility (0.1 n aqueous hydrochloric acid, dans une solution aqueuse d'acide chlorhydrique (0,1 N)) [mg/mL]
 | CCCCOCC(O)CNC(C)C (stereo not shown) [Exemple 1, isopropylamino-3 butoxy-1 propanol-2] | 50 (≈ 264 mM) | 
 | CCCCOCC(O)CNC(C)(C)C (stereo not shown) [Exemple 2, tertiobutylamino-3 butoxy-1 propanol-2] | 10 (≈ 49.2 mM) | 
10 (≈ 36.8 mM) | CC(C)=CCCC(C)CCOCC(O)CNC(C)C (stereo not shown) [Exemple 3, isopropylamino-3 (diméthyl-3,7 octène-6 yloxy)-1 propanol-2] |  | 20 (≈ 73.7 mM)
